Experimental findings from patent publication US10047086B2, “Imidazopyridines and imidazopyrazines as LSD1 inhibitors” (Incyte Corporation, priority 2014, dated 2018) are described below.

The test has as its target LSD-1 enzyme (Homo sapiens (Human), UniProt O60341). Briefly: LANCE LSD1/KDM1A demethylase assay (LSD1 histone demethylase biochemical assay). Conditions: 1 nM LSD-1 enzyme, 1 hour preincubation at 25° C., 0.4 μM Biotin-labeled Histone H3 peptide substrate. As to the method: LSD1 Histone Demethylase Biochemical Assay
LANCE LSD1/KDM1A demethylase assay-10 μL of 1 nM LSD-1 enzyme (ENZO BML-SE544-0050) in the assay buffer (50 mM Tris, pH 7.5, 0.01% Tween-20, 25 mM NaCl, 5 mM DTT) were preincubated for 1 hour at 25° C. with 0.8 μL compound/DMSO dotted in black 384 well polystyrene plates. […] Reactions were stopped by addition of 10 μL 1× LANCE Detection Buffer (PerkinElmer CR97-100) supplemented with 1.5 nM Eu-anti-unmodified H3K4 Antibody (PerkinElmer TRF0404), and 225 nM LANCE Ultra Streptavidin (PerkinElmer TRF102) along with 0.9 mM Tranylcypromine-HCl (Millipore 616431). After stopping the reactions plates were incubated for 30 minutes and read on a PHERAstar FS plate reader (BMG Labtech).
A general note: TR-FRET usually uses a lanthanide donor and a delayed reading to cut background.

Consider `Cc1ccc(-c2c(-c3ccc([N+](=O)[O-])cc3)cc(OC[C@@H]3CCNC3)c3cncn23)cc1` [Example 3, 5-(4-methylphenyl)-6-(4-nitrophenyl)-8-[(3R)-pyrrolidin-3-ylmethoxy]imidazo[1,5-a]pyridine], for which the IC50 is at most 50 nM.

With `CN(C)C1CCN(c2nc(-c3ccc(C#N)cc3)c(-c3ccc4c(c3)nc(C(F)F)n4C)n3cncc23)CC1` [Example 143, 4-{5-[2-(difluoromethyl)-1-methyl-1H-benzimidazol-5-yl]-8-[4-(dimethylamino)piperidin-1-yl]imidazo[1,5-a]pyrazin-6-yl}benzonitrile], the half-maximal inhibitory concentration (IC50) is at most 50 nM.

On to `Cc1cc(-c2c(-c3ccc(C#N)cc3)nc(N3CCC(N(C)C)CC3)c3cncn23)ccc1CO` [Example 149, 4-{8-[4-(dimethylamino)piperidin-1-yl]-5-[4-(hydroxymethyl)-3-methylphenyl]imidazo[1,5-a]pyrazin-6-yl}benzonitrile], for which the 50% inhibitory concentration (IC50) is at most 50 nM.

The molecule `Cc1ccc(-c2c(-c3ccc(C#N)cc3)cc(OC[C@@H]3CCCN(C)C3)c3cncn23)cn1` [Example 125, 4-[8-{[(3R)-1-methylpiperidin-3-yl]methoxy}-5-(6-methylpyridin-3-yl)imidazo[1,5-a]pyridin-6-yl]benzonitrile] had an IC50 of at most 50 nM.

With `COc1ccc(-c2c(-c3ccc(C#N)cc3)nc(N3CCC(N(C)C)CC3)c3cncn23)cn1` [Example 53, 4-[8-[4-(dimethylamino)piperidin-1-yl]-5-(6-methoxypyridin-3-yl)imidazo[1,5-a]pyrazin-6-yl]benzonitrile], the half-inhibitory concentration (IC50) was at most 50 nM.

Consider `CN1CCC[C@@H](COc2cc(-c3ccc(C#N)cc3)c(-c3cnc4c(c3)oc(=O)n4C)n3cncc23)C1` [Example 57, (R)-4-(5-(3-methyl-2-oxo-2,3-dihydrooxazolo[4,5-b]pyridin-6-yl)-8-((1-methylpiperidin-3-yl)methoxy)imidazo[1,5-a]pyridin-6-yl)benzonitrile], for which the IC50 is at most 50 nM.

On to `CCN1CCC[C@@H](COc2cc(-c3ccc(C#N)cc3)c(-c3cnc4c(c3)OCCO4)n3cncc23)C1` [Example 67, (R)-4-(5-(2,3-dihydro-[1,4]dioxino[2,3-b]pyridin-7-yl)-8-((1-ethylpiperidin-3-yl)methoxy)imidazo[1,5-a]pyridin-6-yl)benzonitrile], for which the IC50 is at most 50 nM.

On to `Cc1ccc(-c2c(-c3ccc(C#N)cc3)cc(OC[C@@H]3CCNC3)c3cncn23)c(F)c1` [Example 8, 4-{5-(2-fluoro-4-methylphenyl)-8-[(3R)-pyrrolidin-3-ylmethoxy]imidazo[1,5-a]pyridin-6-yl}benzonitrile], for which the IC50 is at most 50 nM.

Regarding `COCCN1CCC[C@@H](COc2cc(-c3ccc(C#N)cc3)c(-c3cc(C)c(CO)c(F)c3)n3cncc23)C1` [Example 129, 4-(5-[3-fluoro-4-(hydroxymethyl)-5-methylphenyl]-8-{[(3R)-1-(2-methoxyethyl)piperidin-3-yl]methoxy}imidazo[1,5-a]pyridin-6-yl)benzonitrile], the half-inhibitory concentration (IC50) was at most 50 nM.

Molecule `CN1CCC[C@@H](COc2nc(-c3ccc(C#N)cc3)c(-c3ccc4c(cnn4C)c3)n3cncc23)C1` [Example 23, 4-(5-(1-methyl-1H-indazol-5-yl)-8-{[(3R)-1-methylpiperidin-3-yl]methoxy}imidazo[1,5-a]pyrazin-6-yl)benzonitrile] yielded a half-maximal inhibitory concentration (IC50) of at most 50 nM.

Turning to `CN1CCC[C@@H](COc2nc(-c3ccc(C#N)cc3)c(-c3cnc4c(ccn4C)c3)n3cncc23)C1` [Example 85, 4-[8-{[(3R)-1-methylpiperidin-3-yl]methoxy}-5-(1-methyl-1H-pyrrolo[2,3-b]pyridin-5-yl)imidazo[1,5-a]pyrazin-6-yl]benzonitrile], the IC50 was at most 50 nM.

The molecule `CN1CCC[C@@H](COc2cc(-c3ccc(C#N)cc3)c(-c3ccc(C(C)(C)O)cc3)n3cncc23)C1` [Example 77, 4-(5-[4-(1-hydroxy-1-methylethyl)phenyl]-8-{[(3R)-1-methylpiperidin-3-yl]methoxy}imidazo[1,5-a]pyridin-6-yl)benzonitrile] displayed an IC50 of at most 50 nM.

Turning to `CN(C)C1CCN(c2nc(-c3ccc(C#N)cc3)c(-c3cnc4c(c3)ncn4C)n3cncc23)CC1` [Example 107, 4-[8-[4-(dimethylamino)piperidin-1-yl]-5-(3-methyl-3H-imidazo[4,5-b]pyridin-6-yl)imidazo[1,5-a]pyrazin-6-yl]benzonitrile], the 50% inhibitory concentration (IC50) was at most 50 nM.

As to `COCCN1CCC[C@@H](COc2cc(-c3ccc(C#N)cc3)c(-c3cnc4c(c3)CCCO4)n3cncc23)C1` [Example 122, (R)-4-(5-(3,4-dihydro-2H-pyrano[2,3-b]pyridin-6-yl)-8-((1-(2-methoxyethyl)piperidin-3-yl)methoxy)imidazo[1,5-a]pyridin-6-yl)benzonitrile], the IC50 is at most 50 nM.

Turning to `COC(=O)N(C)c1ccc(-c2c(-c3ccc(C#N)cc3)nc(N3CCC(N(C)C)CC3)c3cncn23)cc1` [Example 95, methyl (4-(6-(4-cyanophenyl)-8-(4-(dimethylamino)piperidin-1-yl)imidazo[1,5-a]pyrazin-5-yl)phenyl)(methyl)carbamate], the concentration for half-maximal inhibition (IC50) is at most 50 nM.

With `CN1CCC[C@@H](COc2cc(-c3ccc(C#N)cc3)c(-c3ccc(CN(C)C(=O)N(C)C)c(F)c3)n3cncc23)C1` [Example 82, N-[4-(6-(4-cyanophenyl)-8-{[(3R)-1-methylpiperidin-3-yl]methoxy}imidazo[1,5-a]pyridin-5-yl)-2-fluorobenzyl]-N,N′,N′-trimethylurea], the half-inhibitory concentration (IC50) was at most 50 nM.

For the molecule `Cc1cc(-c2c(-c3ccc(C#N)cc3)cc(OC[C@@H]3CCCN(C)C3)c3cncn23)cnc1C` [Example 81, 4-(5-(5,6-dimethylpyridin-3-yl)-8-{[(3R)-1-methylpiperidin-3-yl]methoxy}imidazo[1,5-a]pyridin-6-yl)benzonitrile], the half-maximal inhibitory concentration (IC50) is at most 50 nM.

`CN1CCC[C@@H](COc2cc(-c3ccc(C#N)cc3)c(-c3ccc(N4CCCC4=O)nc3)n3cncc23)C1` [Example 71, (R)-4-(8-((1-methylpiperidin-3-yl)methoxy)-5-(6-(2-oxopyrrolidin-1-yl)pyridin-3-yl)imidazo[1,5-a]pyridin-6-yl)benzonitrile] returned a half-maximal inhibitory concentration (IC50) of at most 50 nM.

`CN1CCOc2ccc(-c3c(-c4ccc(C#N)cc4)cc(OC[C@@H]4CCNC4)c4cncn34)cc21` [Example 15, 4-{5-(4-methyl-3,4-dihydro-2H-1,4-benzoxazin-6-yl)-8-[(3R)-pyrrolidin-3-ylmethoxy]imidazo[1,5-a]pyridin-6-yl}benzonitrile] came in with an IC50 of at most 50 nM.

As to `CN1CCC[C@@H](COc2cc(-c3ccc(C#N)cc3)c(-c3ccc4c(c3)CC(=O)N4C)n3cncc23)C1` [Example 64, (R)-4-(5-(1-methyl-2-oxoindolin-5-yl)-8-((1-methylpiperidin-3-yl)methoxy)imidazo[1,5-a]pyridin-6-yl)benzonitrile], the 50% inhibitory concentration (IC50) was at most 50 nM.

On to `CN(C)C1CCN(c2nc(-c3ccc(C#N)cc3)c(-c3cc(F)c4c(c3)n(C)c(=O)n4C)n3cncc23)CC1` [Example 138, 4-(8-(4-(dimethylamino)piperidin-1-yl)-5-(7-fluoro-1,3-dimethyl-2-oxo-2,3-dihydro-1H-benzo[d]imidazol-5-yl)imidazo[1,5-a]pyrazin-6-yl)benzonitrile], for which the IC50 is at most 50 nM.

`Cc1cc(-c2c(-c3ccc(C#N)cc3)nc(OC[C@@H]3CCCN(C)C3)c3cncn23)cc(F)c1CO` [Example 44, 4-(5-[3-fluoro-4-(hydroxymethyl)-5-methylphenyl]-8-{[(3R)-1-methylpiperidin-3-yl]methoxy}imidazo[1,5-a]pyrazin-6-yl)benzonitrile] had a concentration for half-maximal inhibition (IC50) of at most 50 nM.

Regarding `Cc1ccc(-c2c(-c3ccc(C#N)cc3)cc(OC[C@@H]3CCN(C)C3)c3cncn23)cc1` [Example 20, 4-(5-(4-methylphenyl)-8-{[(3R)-1-methylpyrrolidin-3-yl]methoxy}imidazo[1,5-a]pyridin-6-yl)benzonitrile], the concentration for half-maximal inhibition (IC50) was at most 50 nM.

For `CN1CCC[C@@H](COc2nc(-c3ccc(C#N)cc3)c(-c3cc(F)c(CO)c(F)c3)n3cncc23)C1` [Example 47, 4-(5-[3,5-difluoro-4-(hydroxymethyl)phenyl]-8-{[(3R)-1-methylpiperidin-3-yl]methoxy}imidazo[1,5-a]pyrazin-6-yl)benzonitrile], the IC50 was at most 50 nM.

`Cn1ncc2cc(-c3c(-c4ccc(C#N)cc4)cc(OC[C@@H]4CCNC4)c4cncn34)ccc21` [Example 11, 4-{5-(1-methyl-1H-indazol-5-yl)-8-[(3R)-pyrrolidin-3-ylmethoxy]imidazo[1,5-a]pyridin-6-yl}benzonitrile]: the IC50 was at most 50 nM.

With `COC(=O)N(C)c1ccc(-c2c(-c3ccc(C#N)cc3)nc(OC[C@@H]3CCCN(C)C3)c3cncn23)cc1F` [Example 87, (R)-methyl (4-(6-(4-cyanophenyl)-8-((1-methylpiperidin-3-yl)methoxy)imidazo[1,5-a]pyrazin-5-yl)-2-fluorophenyl)(methyl)carbamate], the IC50 is at most 50 nM.

With `CN1CCC[C@@H](COc2nc(-c3ccc(C#N)c(F)c3)c(-c3ccc4c(c3)CCC(=O)N4C)n3cncc23)C1` [Example 102, 2-fluoro-4-(5-(1-methyl-2-oxo-1,2,3,4-tetrahydroquinolin-6-yl)-8-{[(3R)-1-methylpiperidin-3-yl]methoxy}imidazo[1,5-a]pyrazin-6-yl)benzonitrile], the IC50 was at most 50 nM.

Regarding `CN(C)C1CCN(c2nc(-c3ccc(C#N)cc3)c(-c3cnn(C4CCC4)c3)n3cncc23)CC1` [Example 139, 4-{5-(1-cyclobutyl-1H-pyrazol-4-yl)-8-[4-(dimethylamino)piperidin-1-yl]imidazo[1,5-a]pyrazin-6-yl}benzonitrile], the concentration for half-maximal inhibition (IC50) is at most 50 nM.

Usually IC50 stands for the point on the concentration scale where inhibition reaches its midpoint. A low value points to higher potency.
